{"source": "paper PMC7503713", "about": "“GANT61 Reduces Hedgehog Molecule (GLI1) Expression and Promotes Apoptosis in Metastatic Oral Squamous Cell Carcinoma Cells” (International Journal of Molecular Sciences, 2020)", "type_in_all_cases": "cell-based, human", "key": {"SCC4": {"tested_on": "SCC4", "experiment": "alamarBlue cytotoxicity assay, SCC4", "conditions": "72 h of incubation", "method": "(§1) To assess the cytotoxicity of the GLI inhibitor GANT61 (Sigma-Aldrich, St. Louis, MO, USA) in tumor and non-tumor cell lines, an alamarBlue assay (Sigma-Aldrich Chemical Co, St. Louis, MO, USA) was performed after 72 h of exposure to the inhibitor, as described by Ahmed et al., 1994 [46]. Cells were distributed on 96-well plates at a density of 7 × 10^4 cells/mL for adhered cells, and 3 × 10^5 cells/mL for cells in suspension. All tested compounds were dissolved in DMSO, added to wells containing 100 µL of cells in complete medium, and then incubated for 72 h. Eight concentrations of GANT61 (0.19 to 50 µg/mL), Doxorubicin (Laboratory IMA S.A.I.C., Buenos Aires, Argentina), and 5-Fluorouracil (5-FU, Sigma-Aldrich, St. Louis, MO, USA), both used as positive controls at concentrations ranging from 0.03 to 5 µg/mL, were added to respective wells. […] Absorbance was measured at 570 nm (reduced) and 595 nm (oxidized) wavelengths, using a Spectramax 190 plate reader (Molecular Devices; Sunnyvale, CA, USA).\n(§2) Statistical analyses were performed, using GraphPad Prism v. […] Data were analyzed according to distribution along the normal Gaussian curve. […] Differences between groups resulting from in vitro assays were evaluated by ANOVA (analysis of variance) testing, followed by the Student–Newman–Keuls test. […]"}, "HaCat": {"tested_on": "HaCat", "experiment": "alamarBlue cytotoxicity assay, HaCat", "conditions": "72 h of incubation", "method": "as §1, §2"}, "GLI1 mRNA": {"tested_on": "GLI1 mRNA", "experiment": "qPCR of HH pathway gene expression in HSC3 cells, GLI1", "conditions": "12 h", "method": "(§3) For total RNA isolation, HSC3 cells were plated on 6-well plates, at a density of 0.7 × 10^5 cells/mL (5 mL/well volume), and incubated overnight, followed by treatment with the GLI inhibitor for 12 h at both concentrations (18 and 36 µM).\n(§4) All experiments were carried out under DNAse/RNAse-free conditions. Silica microcolumns were used for RNA extraction, using an RNeasy Plus Mini Kit (QIAGEN, Hilden, Germany). Extracted RNA was analyzed for quantity and purity, using a NanoDrop®® 1000 spectrophotometer (Thermo Fisher Scientific, Waltham, MA, USA).\n(§5) Reverse transcription was performed by using Superscript VILO™ transcriptase enzyme (Invitrogen, Carlsbad, CA, USA). The cDNA samples were stored at −20 °C, until the time of use.\n(§6) HH pathway component expression was evaluated in cells treated or not with GANT61 by qPCR, using TaqMan Gene Expression Assays^TM inventoried for the PTCH1 (Hs00181117_m1), GLI1 (Hs01110766_m1), GLI2 (Hs01119974_m1), and GLI3 (Hs00609233_m1) genes, as well as for B2 M (Hs99999907_m1). […]\n(§7) Following amplification and dissociation runs, quantification cycle (Cq) values were obtained by using the ViiA7^TM System Operational Program (AppliedByosistems, Foster City, CA, USA). For relative quantification, the comparative method (2−∆∆Cq) described by Livak and Schmittgen, 2001 was used. […]"}, "PTCH1 mRNA": {"tested_on": "PTCH1 mRNA", "experiment": "qPCR of HH pathway gene expression in HSC3 cells, PTCH1", "conditions": "HSC3, 36 µM, 12 h, not significant", "method": "as §3, §4, §5, §6, §7"}, "GLI3 mRNA": {"tested_on": "GLI3 mRNA", "experiment": "qPCR of HH pathway gene expression in HSC3 cells, GLI3", "conditions": "HSC3, 18 and 36 µM, 12 h, not significant", "method": "as §3, §4, §5, §6, §7"}, "SCC25": {"tested_on": "SCC25", "experiment": "alamarBlue cytotoxicity assay, SCC25", "conditions": "72 h of incubation", "method": "as §1, §2"}, "GLI2 mRNA": {"tested_on": "GLI2 mRNA", "experiment": "qPCR of HH pathway gene expression in HSC3 cells, GLI2", "conditions": "HSC3, 18 and 36 µM, 12 h, not significant", "method": "as §3, §4, §5, §6, §7"}}}
{"smiles": "CN(C)c1ccccc1CN1CCCN(Cc2ccccc2N(C)C)C1c1ccncc1", "note": "[GANT61]", "values": [{"measurement": "IC50", "setting": "SCC4", "result": 111, "unit": "µM"}, {"measurement": "IC50", "setting": "HaCat", "result": 35.1, "unit": "µM"}, {"measurement": "mRNA expression of GLI1", "setting": "GLI1 mRNA; HSC3, 18 µM, not significant", "result": "Reductions in mRNA expression"}, {"measurement": "mRNA levels of GLI1", "setting": "GLI1 mRNA; HSC3, 36 µM, vs negative (DMSO 0.2%) and positive (5-FU) controls", "result": "statistically significant reduction"}, {"measurement": "mRNA expression of PTCH1", "setting": "PTCH1 mRNA", "result": "Reductions in mRNA expression"}, {"measurement": "mRNA expression of GLI3", "setting": "GLI3 mRNA", "result": "Reductions in mRNA expression"}, {"measurement": "IC50", "setting": "SCC25", "result": 53.3, "unit": "µM"}, {"measurement": "mRNA expression of GLI2", "setting": "GLI2 mRNA", "result": "Reductions in mRNA expression"}]}
